Our source for the IC50 values is patent US5521175A, “Benzodiazepine derivatives” (Merck Sharp & Dohme Ltd., priority 1992, dated 1996).

pIC50: −log10 of the molar value. Structures can show the parent of a compound that is named as a salt. Where two headings read alike, the source gives them in different places.

One assay deals with T1, CCK-B receptor (Cavia porcellus, UniProt H0VZC5).
T1 construct: guinoa pig brain (CCK-B); from tissue; host or cells: guinea pig brain
T1 sequence (H0VZC5 1-426): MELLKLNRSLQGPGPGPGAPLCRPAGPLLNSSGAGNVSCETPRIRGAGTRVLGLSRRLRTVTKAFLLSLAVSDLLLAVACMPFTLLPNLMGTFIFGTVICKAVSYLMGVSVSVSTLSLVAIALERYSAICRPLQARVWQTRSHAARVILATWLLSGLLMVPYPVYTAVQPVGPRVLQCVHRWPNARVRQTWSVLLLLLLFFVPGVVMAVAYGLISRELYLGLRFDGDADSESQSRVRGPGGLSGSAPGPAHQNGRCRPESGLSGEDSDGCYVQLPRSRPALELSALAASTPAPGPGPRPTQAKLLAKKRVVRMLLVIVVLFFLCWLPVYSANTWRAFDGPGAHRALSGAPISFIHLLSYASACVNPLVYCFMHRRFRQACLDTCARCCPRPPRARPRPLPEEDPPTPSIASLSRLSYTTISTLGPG
The experiment in a line: displacement of ^125 I-CCK from guinea pig brain (CCK-B receptor binding). The note with it: guinoa pig brain (CCK-B).

For a further assay, the target named is T2, CCK-A receptor (Rattus norvegicus, UniProt P30551).
T2 sequence (P30551 1-444): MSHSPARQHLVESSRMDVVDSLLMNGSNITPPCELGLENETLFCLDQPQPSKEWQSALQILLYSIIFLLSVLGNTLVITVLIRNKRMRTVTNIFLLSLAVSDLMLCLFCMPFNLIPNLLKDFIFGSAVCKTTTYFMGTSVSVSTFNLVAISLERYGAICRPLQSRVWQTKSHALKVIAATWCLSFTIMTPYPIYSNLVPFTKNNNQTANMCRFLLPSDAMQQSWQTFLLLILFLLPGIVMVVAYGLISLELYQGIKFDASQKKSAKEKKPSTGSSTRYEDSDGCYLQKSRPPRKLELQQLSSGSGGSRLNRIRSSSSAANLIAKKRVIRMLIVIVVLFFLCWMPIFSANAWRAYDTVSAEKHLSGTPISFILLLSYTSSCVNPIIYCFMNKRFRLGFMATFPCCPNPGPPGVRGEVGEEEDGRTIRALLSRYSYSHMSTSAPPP
The assay is described as follows: displacement of ^125 I-CCK from rat pancreas (CCK-A receptor binding).

Where [1] appears, read: read-out: CCK receptor binding IC50, ^125 I-CCK Brain.
Setting [2] is: ^125 I-CCK, rat pancreas (CCK-A), read-out: CCK receptor binding IC50, ^125 I-CCK Pancreas.

Description for CCK-A receptor: (§1) The CCK-A and CCK-B antagonising activity of the compounds described herein was evaluated using the assays described in published European patent application no. […] The method essentially involves determining the concentration of the test compound required to displace 50% of the specific ^125 I--CCK from rat pancreas (CCK-A) or guinoa pig brain (CCK-B).
Description for CCK-B receptor: as §1

In general, pIC50 refers to the IC50 on a negative log10 scale, so that one unit is a factor of ten. Consider `CCCN1C(=O)C(NC(=O)Nc2cccc(C)c2)N=C(C2CCCCN2)c2ccccc21` (single isomer, unassigned) [Example 1, N-[2,3-Dihydro-2-oxo-5-(piperidin-2-yl)-1-(1-propyl)-1H-1,4-benzodiazepin-3-yl]-N'-[3-methylphenyl]urea hydrochloride], for which the pIC50 is 7.38 at CCK-B receptor (setting [1]) and less than 5.52 on CCK-A receptor (setting [2]).
As for `CCCN1C(=O)C(NC(=O)Nc2cccc(C)c2)N=C(C2CCCCN2)c2ccccc21` (single isomer, unassigned) [Example 2, N-[2,3-Dihydro-2-oxo-5-(piperidin-2-yl)-1-(1-propyl)-1H-1,4,benzodiazepin-3-yl]-N'-[3-methylphenylurea hydrochloride], the pIC50 is 7.44 on CCK-B receptor (setting [1]) and less than 5.52 at CCK-A receptor (setting [2]).
`CCCN1C(=O)C(NC(=O)Nc2cccc(C)c2)N=C(C2CCCCN2C)c2ccccc21` (single isomer, unassigned) [Example 3, N-[2,3-Dihydro-5-(1-methylpiperidin-2-yl)-2-oxo-1-(1propyl)-1H-1,4-benzodiazepin-3-yl]-N'-[3-methylphenyl]urea hydrochloride] showed a negative logarithm of the IC50 (pIC50) at CCK-B receptor (CCK receptor binding IC50, ^125 I-CCK Brain) of 7.27.
For the compound `CCCN1C(=O)C(NC(=O)Nc2cccc(C)c2)N=C(C2CCC(C)(C)CCN2C)c2ccccc21` (single isomer, unassigned) [Example 5, N-[2,3-Dihydro-5-(2,3,4,5,6-hexahydro-1,5,5,-trimethyl-1H-azepin-2-yl)-2-oxo-1-(1-propyl)-1H-1,4-benzodiazepin-3-yl]-N'-[3-methylphenyl]urea hydrochloride], the negative logarithm of the IC50 (pIC50) at CCK-B receptor (setting [1]) is 7.59.
On the same count and under the same terms, in the case of `Cc1cccc(NC(=O)NC2N=C(C3CCC(C)(C)CCN3)c3ccccc3N(C)C2=O)c1` (single isomer, unassigned) [Example 6, N-[2,3-Dihydro-5-(5,5-dimethyl-2,3,4,5,6-hexahydro-1H-azepin-2-yl)-1-methyl-2-oxo-1H-1,4-benzodiazepin-3-yl]-N'-[3-methylphenyl]urea hydrochloride] it was 7.92.
For `CN1C(=O)C(NC(=O)Nc2ccc3c(c2)CCC3)N=C(C2CCC(C)(C)CCN2)c2ccccc21` (single isomer, unassigned) [Example 7, N-[2,3-Dihydro-5-(5,5-dimethyl-2,3,4,5,6-hexahydro-1H-azepin-2-yl)-1-methyl-2-oxo-1H-1,4-benzodiazepin-3-yl]-N'-[5-indanyl]urea hydrochloride], the negative logarithm of the IC50 (pIC50) was 8.63 on CCK-B receptor (setting [1]) and 5.19 on CCK-A receptor (setting [2]).
On to `CCCN1C(=O)C(NC(=O)Nc2cccc(C)c2)N=C(C2CC(C)(C)CCN2)c2ccccc21` (single isomer, unassigned) [Example 8, N-[2,3-Dihydro-5-(4,4-dimethylpiperidin-2-yl)-2-oxo-1-(1-propyl)-1H-1,4-benzodiazepin-3-yl]-N'-[3-methylphenyl]urea hydrochloride], for which, at CCK-B receptor (setting [1]), the pIC50 is 8.83.
As to `CCCN1C(=O)C(NC(=O)Nc2ccc3c(c2)CCC3)N=C(C2CC(C)(C)CCN2)c2ccccc21` (single isomer, unassigned) [Example 12, N-[2,3-Dihydro-5-(4,4-dimethylpiperidin-2-yl)-2-oxo-1-(1-propyl)-1H, 1,4-benzodiazepin-3-yl-N'-[5-indanyl]urea hydrochloride], the pIC50 on CCK-A receptor was 5.49.
In the case of `Cc1cccc(NC(=O)NC2N=C(C3CCNCC3)c3ccccc3N(CC(C)C)C2=O)c1` (centres unmarked) [Example 9, N-[2,3-Dihydro-1-(2-methylpropyl)-2-oxo-5-(piperidin-4-yl)-1H-1,4-benzodiazepin-3-yl]-N'-[3-methylpheny]urea trifluoroacetic acid salt], the pIC50 at CCK-B receptor (setting [1]) is 6.54; on CCK-A receptor (setting [2]), 5.57.
On the same counts, the results for `Cc1cccc(NC(=O)NC2N=C(C3CCN(C)CC3)c3ccccc3N(CC(C)C)C2=O)c1` (centres unmarked) [Example 10, N-[2,3-Dihydro-5-(N-methylpiperidin-4-yl)-1-(2-methylpropyl)-2-oxo-1H-1,4-benzodiazepin-3-yl]-N'-[3-methylphenyl]urea hydrochloric acid salt] are 6.62 and 5.53.
For `CC(C)CN1C(=O)C(NC(=O)Nc2cccc(-c3nnn[nH]3)c2)N=C(C2CCNCC2)c2ccccc21` (centres unmarked) [Example 11, N-[2,3-Dihydro-1-(2-methylpropyl)-2-oxo-5-(piperidin-4-yl)-1H-1,4-benzodiazepin-3-yl]-N'-[3-(tetrazol-5-yl)phenyl]urea, trifluoroacetic acid salt] the same measures were 7.26 and less than 5.52.
